Measured values reported in patent US20120202793A1, “RHO KINASE INHIBITORS” (priority 2009, published 2012).
One block for each compound: values may come before it.

Columns and labels:
ROCK 1 = ROCK 1 (Homo sapiens, UniProt Q13464); experiment: Inhibition of Rho kinase ROCK 1 (Tables 2.1-2.4); assay type: biochemical
Experimental: (§1) Inhibitory activity for Rho kinase was determined for examples of compounds of the present invention. Inhibition of Rho kinase can be assayed as described. For each of these compounds their inhibitory activity for both ROCK1 and ROCK2 was determined.
(§2) The IC50 values (in μM) for each of these compounds show a selectivity for inhibiting ROCK2.

ROCK 2 = ROCK 2 (Homo sapiens, UniProt O75116); experiment: Inhibition of Rho kinase ROCK 2 (Tables 2.1-2.4); assay type: biochemical
Chain of ROCK 2 (O75116 whole entry, species assumed): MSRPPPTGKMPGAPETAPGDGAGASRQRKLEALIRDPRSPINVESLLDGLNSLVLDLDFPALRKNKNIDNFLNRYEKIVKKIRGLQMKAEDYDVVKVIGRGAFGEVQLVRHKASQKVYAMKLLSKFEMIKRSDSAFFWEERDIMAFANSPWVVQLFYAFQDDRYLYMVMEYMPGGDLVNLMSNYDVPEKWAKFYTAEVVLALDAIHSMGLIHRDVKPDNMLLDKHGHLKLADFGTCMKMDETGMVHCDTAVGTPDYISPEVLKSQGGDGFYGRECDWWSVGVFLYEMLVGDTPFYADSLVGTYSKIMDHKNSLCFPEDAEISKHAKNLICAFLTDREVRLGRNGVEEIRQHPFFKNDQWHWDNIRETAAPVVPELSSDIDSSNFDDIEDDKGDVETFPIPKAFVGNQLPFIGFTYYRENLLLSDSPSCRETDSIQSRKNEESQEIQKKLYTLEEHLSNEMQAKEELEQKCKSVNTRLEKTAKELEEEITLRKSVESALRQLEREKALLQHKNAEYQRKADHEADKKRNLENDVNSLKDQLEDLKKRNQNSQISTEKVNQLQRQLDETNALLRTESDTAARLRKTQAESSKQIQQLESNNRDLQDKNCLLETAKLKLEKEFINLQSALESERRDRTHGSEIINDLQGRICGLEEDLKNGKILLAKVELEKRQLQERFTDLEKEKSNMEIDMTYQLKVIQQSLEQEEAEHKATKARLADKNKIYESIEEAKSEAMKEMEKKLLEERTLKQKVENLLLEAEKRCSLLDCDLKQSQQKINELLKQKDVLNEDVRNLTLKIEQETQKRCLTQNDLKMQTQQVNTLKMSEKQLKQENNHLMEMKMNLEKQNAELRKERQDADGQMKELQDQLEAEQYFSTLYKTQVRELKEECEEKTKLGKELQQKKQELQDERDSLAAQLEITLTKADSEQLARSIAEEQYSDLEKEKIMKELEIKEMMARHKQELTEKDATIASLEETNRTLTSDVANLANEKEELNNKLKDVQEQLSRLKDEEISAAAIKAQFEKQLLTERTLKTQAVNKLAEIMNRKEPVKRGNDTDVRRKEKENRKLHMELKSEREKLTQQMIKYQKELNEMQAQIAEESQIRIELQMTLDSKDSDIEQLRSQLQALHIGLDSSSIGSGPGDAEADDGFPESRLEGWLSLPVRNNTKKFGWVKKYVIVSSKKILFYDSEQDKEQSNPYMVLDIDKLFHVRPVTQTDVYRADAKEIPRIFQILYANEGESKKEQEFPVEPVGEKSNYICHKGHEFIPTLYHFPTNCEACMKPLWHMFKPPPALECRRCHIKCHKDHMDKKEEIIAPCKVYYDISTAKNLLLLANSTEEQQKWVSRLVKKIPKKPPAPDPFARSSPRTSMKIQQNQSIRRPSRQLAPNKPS
Experimental: as §1, §2

ROCK2 = experiment: Inhibition of phosphorylation of S6 Long Peptide by ROCK1 and ROCK2 (33P filter assay), selective inhibition of ROCK2; assay type: biochemical
Experimental: Filtration was done in 96 well filter plates containing phosphocellulose cation exchange paper (Millipore, Cat#MAPHNOBIO).
The reaction was incubated for 40 minutes at room temperature and stopped with 25 ul 3% phosphoric acid. Reaction was then transferred to a filter plate wet with 75 mM phosphoric acid. The plate was then washed three times with 75 mM phosphoric acid and once with methanol. […] IC50 values were determined using Graphpad Prism.

[1] = Body weight of rats fed a low fat diet; assay type: in vivo
Source text: The effect of SLx-2119 supplementation on body weight of rats fed a low fat diet was also investigated.

[2] = Attenuation of weight gain, C57BL/6 mice consuming a high fat diet; assay type: in vivo
Experimental: The ability of SLx-2119 to limit weight gain was evaluated by administration to C57BL/6, ApoE knockout, and leptin deficient mice as part of a high fat or low fat diet.
Three groups of 10 mice each were initially fed a control diet for a week. Two groups were then switched to a high fat diet in which 42% of the calories were from fat. SLx-2119 was included in the diet of one of the two groups. The third group continued on the control diet. Fasting glucose levels were measured during the first week (all groups consuming the control diet), and again during the third and sixth week.

[3] = Attenuation of weight gain in ApoE (−/−) and C57BL/6 mice on high fat diet; assay type: in vivo; conditions: 0.1% in the diet from the fourth week, FIG. 15
Source text: (§3) In a different experiment, ApoE (−/−) deficient mice were compared with C57BL/6 mice. All mice were initially fed a control diet for one week, and a high fat diet for the following 11 weeks. At the start of the fourth week, half of the C57BL/6 mice and half of the ApoE (−/−) mice were supplemented with 0.1% SLx-2119 in the diet.

[4] = Fasting insulin and glucose levels in ApoE (−/−) and C57BL/6 mice on high fat diet; assay type: in vivo
Source text: as §3
The reductions in fasting insulin levels were accompanied by reductions in fasting blood glucose levels. (FIG. 18, bottom).

[5] = Attenuation of weight gain in Leptin deficient (ob−/ob−) mice, low fat or high fat diet; assay type: in vivo
Experimental: The effect of SLx-2119 on weight gain in Leptin deficient (ob^−/ob^−) mice fed a low fat (normal) or high fat diet was also measured. […] The leptin deficient mice gained considerably more weight than normal 057BL/6 mice fed the low fat diet.
The leptin deficient mice consuming the high fat diet gained weigh at about four times the rate of normal mice on a low fat diet. […] As with the low fat diet, caloric intake was quite a bit higher in the ob^−/ob^− mice, whether or not they received SLx-2119. (FIG. 23).

[6] = Attenuation of hyperinsulinemia in Leptin deficient (ob−/ob−) mice; assay type: in vivo
Source text: Leptin deficient (ob^−/ob^−) mice were maintained on a normal (control), or a high fat diet with or without SLx-2119. […] Attenuation of hyperinsulinemia was similarly observed in ob^−/ob^− mice maintained on a low fat diet (FIG. 26).

[7] = Glucose tolerance in C57BL/6 mice after 54 days on diet; assay type: in vivo; conditions: high fat diet with compound, meal after overnight fast, FIG. 14
Source text: Separate groups of C57BL/6 mice were fed as above, and evaluated for glucose tolerance after 54 days. All mice were fed the same meal |what is the meal| after an overnight fast. […] (FIG. 14)

Chain of ROCK 1 (Q13464 whole entry, species assumed): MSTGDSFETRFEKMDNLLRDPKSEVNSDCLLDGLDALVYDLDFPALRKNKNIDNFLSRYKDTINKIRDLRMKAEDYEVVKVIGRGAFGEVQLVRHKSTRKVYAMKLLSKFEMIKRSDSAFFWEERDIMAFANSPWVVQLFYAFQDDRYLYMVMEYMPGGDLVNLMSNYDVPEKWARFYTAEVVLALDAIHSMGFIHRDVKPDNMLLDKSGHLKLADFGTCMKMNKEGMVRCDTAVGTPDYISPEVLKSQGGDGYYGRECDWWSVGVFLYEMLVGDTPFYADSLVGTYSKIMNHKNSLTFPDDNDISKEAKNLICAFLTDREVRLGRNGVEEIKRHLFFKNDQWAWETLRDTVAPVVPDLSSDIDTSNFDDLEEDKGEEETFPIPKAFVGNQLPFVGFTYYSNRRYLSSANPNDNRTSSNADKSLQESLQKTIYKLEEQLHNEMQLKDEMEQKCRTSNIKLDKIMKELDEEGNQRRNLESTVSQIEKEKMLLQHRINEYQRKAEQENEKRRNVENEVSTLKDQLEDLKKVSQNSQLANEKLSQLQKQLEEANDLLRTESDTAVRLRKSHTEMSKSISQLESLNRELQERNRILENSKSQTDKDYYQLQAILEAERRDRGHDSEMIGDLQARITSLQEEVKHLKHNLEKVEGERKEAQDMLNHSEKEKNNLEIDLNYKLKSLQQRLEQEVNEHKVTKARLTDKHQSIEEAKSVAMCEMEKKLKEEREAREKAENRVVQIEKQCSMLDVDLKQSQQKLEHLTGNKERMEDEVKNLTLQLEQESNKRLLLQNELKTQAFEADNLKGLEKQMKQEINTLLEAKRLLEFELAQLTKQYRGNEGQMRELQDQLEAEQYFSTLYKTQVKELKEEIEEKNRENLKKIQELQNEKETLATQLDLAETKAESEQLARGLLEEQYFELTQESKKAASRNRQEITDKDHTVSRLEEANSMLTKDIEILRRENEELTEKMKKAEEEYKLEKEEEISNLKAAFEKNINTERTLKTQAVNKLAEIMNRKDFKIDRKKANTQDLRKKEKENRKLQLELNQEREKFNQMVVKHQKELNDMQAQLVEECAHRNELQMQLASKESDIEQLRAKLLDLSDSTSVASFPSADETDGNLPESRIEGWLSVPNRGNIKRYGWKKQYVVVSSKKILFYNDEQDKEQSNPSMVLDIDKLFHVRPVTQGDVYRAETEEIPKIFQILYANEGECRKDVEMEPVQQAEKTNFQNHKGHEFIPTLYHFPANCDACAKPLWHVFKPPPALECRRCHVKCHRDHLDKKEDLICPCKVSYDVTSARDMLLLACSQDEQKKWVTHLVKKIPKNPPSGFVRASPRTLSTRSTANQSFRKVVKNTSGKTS

Compound: COCCNC(=O)COc1cccc(-c2nc(Nc3ccc4[nH]ncc4c3)c3ccccc3n2)c1 [Example 54, 2-(3-(4-(1H-indazol-5-ylamino)quinazolin-2-yl)phenoxy)-N-(2-methoxyethyl)acetamide]
- IC50 (ROCK 1): > 10000 nM
- IC50 (ROCK 2): 150 nM

Compound: O=C(COc1cccc(-c2nc(Nc3ccc4[nH]ncc4c3)c3ccccc3n2)c1)Nc1cccnc1 [Example 55, 2-(3-(4-(1H-indazol-5-ylamino)quinazolin-2-yl)phenoxy)-N-(pyridin-3-yl)acetamide]
- IC50 (ROCK 1): > 10000 nM
- IC50 (ROCK 2): 90 nM

Compound: CCCC(=O)Nc1cccc(-c2nc(Nc3ccc4[nH]ncc4c3)c3ccc(OCCOC)cc3n2)c1 [Example 263]
- IC50 (ROCK 1): > 3000 nM
- IC50 (ROCK 2): 90 nM

Compound: CC(=O)Oc1cccc(-c2nc(Nc3ccc4[nH]ncc4c3)c3ccccc3n2)c1 [Example 272]
- IC50 (ROCK 1): > 10000 nM
- IC50 (ROCK 2): 570 nM

Compound: C[C@@H](N)[C@H]1CC[C@H](C(=O)Nc2ccncc2)CC1 [Example Y-27632]
- inhibition of ROCK2 compared with ROCK1 (ROCK2): to the same extent

Compound: CC(C)NC(=O)COc1cccc(-c2nc(Nc3ccc4[nH]ncc4c3)c3ccccc3n2)c1 [SLx-2119]
- reduction of body weight gain ([1]; FIG. 27): about 6%
- caloric intake ([1]; FIG. 28): little or no change
- weight gain ([2]; high fat diet (42% of calories from fat) supplemented with compound, versus control diet mice, FIG. 11): not distinguishable from the control mice
- average caloric intake of untreated high fat diet mice relative to control and treated groups ([2]; high fat diet, FIG. 12): only slightly higher
- weight gain less than in mice that did not receive the supplement ([3]; ApoE (−/−) mice): 50%
- weight gain less than in mice that did not receive the supplement ([3]; C57BL/6 mice): 33%
- fasting blood glucose levels ([4]; C57BL/6 and ApoE (−/−) mice, FIG. 18 bottom): reductions
- fasting insulin levels ([4]; normal C57BL/6 mice, FIG. 18 top): reduction
- weight gain ([5]; normal C57BL/6 mice, low fat diet, FIG. 19): no distinguishable effect
- weight gain ([5]; ob−/ob− mice, high fat diet, FIG. 22): reduced by half
- weight gain ([5]; ob−/ob− mice, low fat diet, versus ob−/ob− mice without compound, FIG. 19): gained only half as much weight
- fasting blood glucose levels ([6]; high fat diet, FIG. 25): reduced to normal levels
- fasting insulin levels ([6]; high fat diet, FIG. 25): significantly reduced
- hyperinsulinemia ([6]; low fat diet, FIG. 26): Attenuation
- glucose levels following feeding [7]: increased relative to mice maintained on the control diet, but not as high as in mice that did not receive SLx-2119
- recovery of glucose levels [7]: quickly recovered to a normal level

Continued, values first:

- IC50 (ROCK 1): 2600 nM
- IC50 (ROCK 2): 520 nM
Compound: NC(=O)COc1cccc(-c2nc(Nc3ccc4[nH]ncc4c3)c3ccccc3n2)c1 [Example 84, 2-(3-(4-(1H-indazol-5-ylamino)quinazolin-2-yl)phenoxy)acetamide]

- IC50 (ROCK 1): > 1000 nM
- IC50 (ROCK 2): 40 nM
Compound: CCCC(=O)Nc1cccc(-c2nc(Nc3ccc4[nH]ncc4c3)c3cc(OCCN(C)C)ccc3n2)c1 [Example 141, N-(3-(4-(1H-indazol-5-ylamino)-6-(2-(dimethylamino)ethoxy)quinazolin-2-yl)phenyl)butyramide]

- IC50 (ROCK 1): > 3000 nM
- IC50 (ROCK 2): 50 nM
Compound: CCCC(=O)Nc1cccc(-c2nc(Nc3ccc4[nH]ncc4c3)c3cc(OCCCN4CCOCC4)c(OC)cc3n2)c1 [Example 160, N-(3-(4-(1H-indazol-5-ylamino)-7-methoxy-6-(3-morpholinopropoxy)quinazolin-2-yl)phenyl)butyramide]

- IC50 (ROCK 1): > 3000 nM
- IC50 (ROCK 2): 60 nM
Compound: COc1cc2nc(-c3cccc(NC(=O)CN4CCOCC4)c3)nc(Nc3ccc4[nH]ncc4c3)c2cc1OCCN1CCCC1 [Example 167, N-(3-(4-(1H-Indazol-5-ylamino)-7-methoxy-6-(2-(pyrrolidin-1-yl)ethoxy)quinazolin-2-yl)phenyl)-2-morpholinoacetamide]
